Series [1] relates to hormone-independent prostate cancer cell line DU145. The series can be described thus: In vitro cytotoxicity, MTS (CellTiter 96 Aqueous Proliferation Assay), prostate cancer cells. In kind it is cell-based, human. How it is done:
(§1) FIG. 1 is a graph which compares the effects of the compound of Example 8 on normal human endothelial cells (AH-9) and human prostate cancer cells (DU145). Cells were exposed to the compound for seven days at the concentrations indicated. Cytotoxicity was assessed using the MTS assay.
(§2) In these experiments, cells were seeded at 400 cells per well 24 hours prior to addition of the test compound. Cells were grown at 37° C. in a humidified atmosphere of 95% air, 5% CO2 for 7 days with daily media changes. Cytotoxicity was assessed using the CellTiter 96 Aqueous Proliferation Assay (Promega, Madison, Wis.).
(§3) In a separate experiment (FIG. 1), normal human endothelial cells (AH-9) and human prostate cancer cells (DU145) were exposed to increasing concentrations of the compound of Example 8 for seven days.

The subject of series [2] is DU145 prostate carcinoma xenografts. The series can be described thus: Anti-tumor activity in athymic mice bearing DU145 prostate carcinoma. In kind it is in vivo, mouse. The note with it: male nude mice; 12.5 mg/kg/d i.p. daily for two weeks; FIG. 3; 12.5 mg/kg/day. As for the experimental part:
FIG. 3 is a graph showing the effect of the compound of Example 8, at a dose of zero mg/kg (filled circles) and at a dose of 12.5 mg/kg (open circles), on human prostate cancer xenographs in BALB/C/NU mice.
DU145 tumor cells were injected subcutaneously into the flank of male nude mice (day 0). Palpable tumors develop within 14 days at which time the animals were treated for two weeks with daily intraperitoneal injections of either the compound of Example 8 or the control vehicle. Tumors were measured every two days and volume of tumor was calculated using the formula: Tumor volume=length×[…] At the end of the study, tumors in control mice had nearly tripled in size. […] Mechanism of Action

The subject of series [3] is pancreas cancer cell line HS766T. The series can be described thus: In vitro cytotoxicity, MTS assay, pancreas cancer cells. In kind it is cell-based, human. The note with it: 7 days exposure, dose causing death to 50% of cells, read-out: Cell Survival ED 50 Pancreas. As for the experimental part:
as §2
(Formazan colour is commonly taken as a measure of viable cells.)

Series [4] deals with human prostate (DU14) cancer cells. In kind it is in vivo. The note with it: daily i.p. for five days. The source says:
FIG. 2A is a bar graph which depicts the effect of the compound of Example 8 (1-[N,N′-di-p-tolyl)amidino]-4-(trans-1′-cinnamyl)piperizine) on human prostate cancer in BDF/1 mice using the sub-renal capsule assay.
Human cancer cells can be grown in the sub-renal capsule of immuno-competent mice where, for a limited period of time, they escape detection by the mouse's immune system. Thus, the sub-renal capsule assay provides a convenient system to study the effect of drugs on the growth of tumor cells in vivo (Bogden, A. E., et al., Exp. Cell Biol. 47:281 (1979)). Briefly, female BDF mice weighing 18-20g were anesthetized, the left kidney exteriorized and a small nick was made in the kidney capsule for implantation of tumor cells. Approximately 1×10^6 human prostate (DU14) or pancreatic cancer (HS766T) cells were prepared as a fibrinogen-jelled pellet (Stratton, J. A., et al., Gynecol. Oncol. 19:336 (1984); Stratton, J. A., et al., Gynecol. Oncol. 30:416 (1988)) and implanted beneath the renal capsule. […] One day after the final injection, the animals were killed and the tumor volume was measured. Tumor growth was determined by subtracting the initial size of the implant from the size of the implant size following treatment (Stratton, J. A., et al., Gynecol Oncol. 19:336 (1984); Stratton, J. A., et al., Gynecol. Oncol. 30:416 (1988)).

The test system of series [5] is human prostate (DU145) cancer cells. The series can be described thus: Mitochondrial membrane depolarization, JC-1 flow cytometry, prostate cancer cells. The settings on record: 25 μM, five hours following drug exposure. In kind it is cell-based. As for the experimental part:
FIGS. 5D-5F illustrate the effects of compound of Example 8 on human prostate cancer cells (DU145). Mitochondrial membrane depolarization was assessed by flow cytometry as measured by the fluorescence of cation, JC-1. Cells were exposed to 25 μM of the compound and fluorescence measured at: 0 hours (FIG. 5D), 2.5 hours (FIG. 5E) and 4.5 hours (FIG. 5F).
(§4) Mitochondrial membrane depolarization is an early event in apoptosis. […] These early changes in mitochondrial function can be detected using a fluorescent cation, JC-1, that emits a red color when sequestered in the mitochondria of healthy cells, or a green color when localized to the cytoplasm.
(§5) Human breast (HS578-T) and prostate (DU145) cancer cells were exposed to 25 μM of the compound of Example 8 for varying lengths of times. Both cell lines lost the capacity to sequester JC-1 in the mitochondrial compartment as indicated by a time-dependent increase in green vs. red fluorescence (FIGS. 5A-5F). In an attempt to better quantitate the results of these experiments, the scans were divided into quadrants. At time 0, greater than 90% of the dye was localized in the mitochondria in both breast and prostate cancer cells. By five hours following drug exposure, the mitochondria from the prostate and breast cells contained only 33% and 22% of the dye, respectively.
A general note: A flow cytometer gives signals particle by particle.

Series [6] can be described thus: Mouse formalin test pain model, late phase. In kind it is in vivo. As for the experimental part:
The formalin test was conducted using standard procedures (Hunskaar et al., J. Neurosci. Meth. 14:69-76 (1985). Mice (male CF-1, 20-25 g) were placed in Plexiglass jars for at least 1 hr to accommodate to the environment
The animals received either test drug at 5-50 mg/kg p.o. or the appropriate volume of vehicle (normal saline). Thirty minutes after p.o. dosing mice were injected with formalin (20 μl of 2.5% formaldehyde solution in saline) into the dorsal surface of the right hind paw.
All experiments were done in a blinded manner. The late phase of the formalin response was measured as licking/biting from 10-50 minutes after formalin injection. Differences between groups were analyzed by one-way analysis of variance (ANOVA), A P value ≦0.05 was considered significant. Reduction in the time spent licking/biting in the late phase of the formalin response is considered an indication of a reduction in chronic pain.

The subject of series [7] is human breast (HS578-T) cancer cells. The series is described as follows: Mitochondrial membrane depolarization, JC-1 flow cytometry, breast cancer cells. In kind it is cell-based. The settings on record: 25 μM, five hours following drug exposure. As for the experimental part:
FIGS. 5A-5C illustrate the effects of the compound of Example 8 on human breast cancer cells (HS578-T). Mitochondrial membrane depolarization was assessed by flow cytometry as measured by the fluorescence of cation, JC-1. Cells were exposed to 25 μM of the compound and fluorescence measured at: 0 hours (FIG. 5A), 2 hours (FIG. 5B) and 5 hours (FIG. 5C).
as §4, §5

The subject of series [8] is normal human endothelial cells (AH-9). The series can be described thus: In vitro cytotoxicity, MTS assay, normal endothelial cells. The note with it: AH-9 normal endothelial cells; separate experiment (FIG. 1); seven days; read-out: EC50 cytotoxic activity. In kind it is cell-based. As for the experimental part: as §1, §3

“Also recorded” adds a separate entry of the source. Like-named read-outs stand apart in the source and are kept apart here.

Consider `Cc1ccc(N=C(Nc2ccc(C)cc2)N2CCN(C/C=C/c3ccccc3)CC2)cc1` [Example 8, 1-[(N,N′-Di-p-tolyl)amidino]-(trans-1′-cinnamyl)piperizine], for which the EC50 in series [1] (7 days exposure, MTS, dose causing death to 50% of cells, read-out: Cell Survival ED 50 Prostate) was determined as 1300 nM; in series [1] (separate experiment (FIG. 1), seven days, read-out: EC50 cytotoxic activity), 3400 nM; in series [3] it was 1800 nM; in series [8] it was 95000 nM. Besides, the “tumor growth in xenograft (in words)” value in series [2] is “active; also recorded: failed to grow”. Moreover, the “inhibition of tumor growth” value in series [4] (prostate cancer cell line in mouse sub-renal capsule) was “greater than 95%”. The “effect on tumor growth (in words)” value in series [4] (prostate implant, FIG. 2A) was “dose-dependent and highly significant inhibition of tumor growth”. In addition, the “JC-1 dye contained in mitochondria” value in series [5] was 33%; in series [7], 22%. Also, the “late phase pain versus control vehicle (post-hoc Newman-Kuels test)” value in series [6] (30 mg/kg orally) and in series [6] (50 mg/kg orally) was “different from control vehicle at P<0.05” in each case. Besides, the “effect on general behavior of the animals” value in series [6] (at the doses effective in the formalin test, p.o.) is given as “did not affect the general behavior”. The “time spent licking, late phase of formalin response (in words)” value in series [6] (oral administration, 5-50 mg/kg, male CF-1 mice) was “dose-dependent reduction in the time spent licking”.

(Values after patent US6875759B1, “Substituted guanidines and the use thereof” (Kadmus Pharmaceuticals, priority 1999, dated 2005).)
